In paper PMC10847966 (Nature chemical biology, 2023):
pIC50: −log10 of the molar value.

Tests used:
MthK [1] = target: MthK (Methanothermobacter thermautotrophicus, UniProt O27564, A90L); assay: stopped-flow Tl+ flux assay in liposomes; assay type: biochemical
MthK [2] = target: MthK (Methanothermobacter thermautotrophicus, UniProt O27564, A88F); assay: single-particle cryo-EM structure; assay type: binding
MthK [3] = target: MthK (Methanothermobacter thermautotrophicus, UniProt O27564, V91F); assay: stopped-flow Tl+ flux assay in liposomes; assay type: biochemical

CCCCC[N+](CCCCC)(CCCCC)CCCCC [TPeA]
pIC50 (MthK [1]): 5.01 | single-particle cryo-EM structure (MthK [2]): Processing workflow for A88F-TPeA dataset, TPeA densities in the maps with C4 symmetry (mesh), TPeA molecule (stick) | pIC50 (MthK [3]): 5.69
